Assay results as given in paper doi:10.1101/2020.09.01.277368v1, “Disulfiram inhibits M. tuberculosis growth by altering methionine pool, redox status and host-immune response” (biorxiv, 2020).

Legend:
[1] = target: T1, MetA (HSAT, homoserine acetyl transferase, Rv3341) (Mycobacterium tuberculosis, UniProt P9WJY9); assay: endpoint DTNB CoA release assay; assay type: biochemical; settings: read-out: % inhibition at 100 μM
T1 construct: gene metXA

[2] = target: T1, MetA (HSAT, homoserine acetyl transferase, Rv3341); assay: ThermoFluor, SYPRO Orange; assay type: binding

T1 sequence (P9WJY9 whole entry, looked up): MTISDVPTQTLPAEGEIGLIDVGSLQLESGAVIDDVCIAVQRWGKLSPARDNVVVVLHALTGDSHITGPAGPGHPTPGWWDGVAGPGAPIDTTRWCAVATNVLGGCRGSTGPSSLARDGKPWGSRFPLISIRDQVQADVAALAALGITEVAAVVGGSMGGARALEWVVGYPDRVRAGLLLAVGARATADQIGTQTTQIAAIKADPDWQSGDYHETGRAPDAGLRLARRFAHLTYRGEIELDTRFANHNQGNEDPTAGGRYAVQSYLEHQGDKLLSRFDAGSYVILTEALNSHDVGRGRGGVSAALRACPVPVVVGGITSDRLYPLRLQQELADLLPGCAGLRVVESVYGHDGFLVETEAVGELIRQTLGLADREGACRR

| Structure (SMILES) | inhibition at 100 µM [1] | Kd [2] |
| --- | --- | --- |
| CN(C)C(=S)SSC(=S)N(C)C [NSC1771, thiram] | > 50% |  |
| CCN(CC)C(=S)SSC(=S)N(CC)CC [DIS, disulfiram] | > 50% | 52.7 µM |
